# Measured values as given in patent US6221906A, “Platinum complex conjugated to cyclotriphosphazene, its preparation, and anticancer agent comprising the same” (Korea Institute of Science and Technology, priority 1999, dated 2001).
# Key:
# [1] = tested on: leukemia L1210 cells; experiment: anticancer activity test against mouse leukemia L1210 cells implanted in BDF1 mice; format: in vivo; details: intra-peritoneal, days 1, 5 and 9; for Number of survival after 60 days: of 8 mice
# [2] = literature value; cited from earlier work
# [3] = tested on: ICR mouse; experiment: pilot acute toxicity test, single tail vein injection (LD50); format: in vivo; details: for Death rate: 2 animals; for deaths on day 0 after administration: of 2 animals
# Protocol: A pilot acute toxicity test was performed for the compound (KI-60606) described in Example 8 of the present invention by intravenous injection.
# (2) carrier: physiological saline for injection
# (1) animal model: ICR mouse
# (2) age of the animal: 4 weeks old when delivered, 5 weeks old when the drug was administered
# (3) sex and number of animals: 12 males and 12 females
# (4) breeding condition: temperature: 23 3C. relative humidity: 50 10% light intensity: 150-300 Lux
# 3. Number and method of administration: single tail vein injection
# 5. Observation categories: general symptoms, symptoms of dead animals, body weight up to seventh day after administration, autopsy finding.
# [4] = tested on: Hartley guinea pigs; experiment: guinea pig anaphylaxis test; format: in vivo
# Protocol: […] The systemic symptoms were observed 30 minutes after the injection. […] However, only 2 animals administered with oligomeric platinum complex of the present invention (KI 60606: The compound in Example 8 of the present invention) had severe symptoms but none died.
# [5] = male or female mice, 500 mg/kg or more
# [6] = antigen 1 mg/kg, induced antigen 5 mg/kg, 4 animals
# [7] = antigen 5 mg/kg, induced antigen 5 mg/kg, 4 animals
compound,measurement,setting,value
"O=C1[O][Pt-2]2([NH2+]C3CCCCC3[NH2+]2)[O]C(=O)C1NP1(NC2C(=O)[O][Pt-2]3([NH2+]C4CCCCC4[NH2+]3)[O]C2=O)=NP(NC2C(=O)[O][Pt-2]3([NH2+]C4CCCCC4[NH2+]3)[O]C2=O)(NC2C(=O)[O][Pt-2]3([NH2+]C4CCCCC4[NH2+]3)[O]C2=O)=NP(NC2C(=O)[O][Pt-2]3([NH2+]C4CCCCC4[NH2+]3)[O]C2=O)(NC2C(=O)[O][Pt-2]3([NH2+]C4CCCCC4[NH2+]3)[O]C2=O)=N1 (racemic) [Example 16, [NP(Am·Pt(dach)2]3]",Increased life span (ILS),[1]; 30 mg/kg,222.1%
same,Increased life span (ILS),[1]; 60 mg/kg,Toxic
"N.N.O=C([O-])C1(C(=O)[O-])CCC1.[Pt+2] [Carboplatin, cis-(NH3)2 Pt(CBDCA), reference compound]",Increased life span (ILS),[1]; 40 mg/kg,80%
same,LD50,[2],180 mg/kg
"N.N.[Cl][Pt][Cl] [Cisplatin, cis-(NH3)2 PtCl2, reference compound]",Increased life span (ILS),[1]; 4 mg/kg,60%
"O=C1CC(NP2(NC3CC(=O)[O][Pt-2]4([NH2+]C5CCCCC5[NH2+]4)[O]C3=O)=NP(NC3CC(=O)[O][Pt-2]4([NH2+]C5CCCCC5[NH2+]4)[O]C3=O)(NC3CC(=O)[O][Pt-2]4([NH2+]C5CCCCC5[NH2+]4)[O]C3=O)=NP(NC3CC(=O)[O][Pt-2]4([NH2+]C5CCCCC5[NH2+]4)[O]C3=O)(NC3CC(=O)[O][Pt-2]4([NH2+]C5CCCCC5[NH2+]4)[O]C3=O)=N2)C(=O)[O][Pt-2]2([NH2+]C3CCCCC3[NH2+]2)[O]1 [Example 1, [NP(L-Asp·Pt(dach))2]3]",Increased life span (ILS),[1]; 40 mg/kg,> 243.8%
same,Number of survival after 60 days,[1]; 40 mg/kg,1/8
same,Increased life span (ILS),[1]; 60 mg/kg,> 448.8%
same,Number of survival after 60 days,[1]; 60 mg/kg,4/8
"CC1(C)C[NH2+][Pt-2]2([NH2+]C1)[O]C(=O)C[C@H](NP1(N[C@H]3CC(=O)[O][Pt-2]4([NH2+]CC(C)(C)C[NH2+]4)[O]C3=O)=NP(N[C@H]3CC(=O)[O][Pt-2]4([NH2+]CC(C)(C)C[NH2+]4)[O]C3=O)(N[C@H]3CC(=O)[O][Pt-2]4([NH2+]CC(C)(C)C[NH2+]4)[O]C3=O)=NP(N[C@H]3CC(=O)[O][Pt-2]4([NH2+]CC(C)(C)C[NH2+]4)[O]C3=O)(N[C@H]3CC(=O)[O][Pt-2]4([NH2+]CC(C)(C)C[NH2+]4)[O]C3=O)=N1)C(=O)[O]2 [Example 2, [NP(L-Asp·Pt(dmpda))2]3]",Increased life span (ILS),[1]; 30 mg/kg,165.0%
same,Increased life span (ILS),[1]; 60 mg/kg,147.9%
"O=C1C[C@H](NP2(N[C@H]3CC(=O)[O][Pt-2]4([NH2+]CC[NH2+]4)[O]C3=O)=NP(N[C@H]3CC(=O)[O][Pt-2]4([NH2+]CC[NH2+]4)[O]C3=O)(N[C@H]3CC(=O)[O][Pt-2]4([NH2+]CC[NH2+]4)[O]C3=O)=NP(N[C@H]3CC(=O)[O][Pt-2]4([NH2+]CC[NH2+]4)[O]C3=O)(N[C@H]3CC(=O)[O][Pt-2]4([NH2+]CC[NH2+]4)[O]C3=O)=N2)C(=O)[O][Pt-2]2([NH2+]CC[NH2+]2)[O]1 [Example 4, [NP(L-Asp·Pt(en))2]3]",Increased life span (ILS),[1]; 30 mg/kg,250.9%
same,Increased life span (ILS),[1]; 60 mg/kg,Toxic
"O=C1CCC(NP2(NC3CCC(=O)[O][Pt-2]4([NH2+]C5CCCCC5[NH2+]4)[O]C3=O)=NP(NC3CCC(=O)[O][Pt-2]4([NH2+]C5CCCCC5[NH2+]4)[O]C3=O)(NC3CCC(=O)[O][Pt-2]4([NH2+]C5CCCCC5[NH2+]4)[O]C3=O)=NP(NC3CCC(=O)[O][Pt-2]4([NH2+]C5CCCCC5[NH2+]4)[O]C3=O)(NC3CCC(=O)[O][Pt-2]4([NH2+]C5CCCCC5[NH2+]4)[O]C3=O)=N2)C(=O)[O][Pt-2]2([NH2+]C3CCCCC3[NH2+]2)[O]1 [Example 8, [NP(L-Glu·Pt(dach))2]3]",Main symptoms,"[3]; 62.5-2000 mg/kg, single intravenous injection, ICR mice","prone positioning, gait disturbance, dyspnea and decrease in body weight"
same,General symptoms of dead mice,[3]; 125 or 250 mg/kg,prone positioning and drooling
same,Estimated LD50 value,"[3]; female ICR mice, single intravenous injection",125 to 250 mg/kg
same,Death rate,"[3]; female, 62.5 mg/kg",0%
same,number of mice with decrease in body weight,"[3]; female, 125 mg/kg",2
same,Death rate,"[3]; female, 125 mg/kg",0%
same,Death rate,"[3]; female, 250 mg/kg",100%
same,deaths on day 0 after administration,"[3]; female, 250 mg/kg",2
same,Death rate,"[3]; female, 500 mg/kg",100%
same,deaths on day 0 after administration,"[3]; female, 500 mg/kg",2
same,Death rate,"[3]; female, 1000 mg/kg",100%
same,deaths on day 0 after administration,"[3]; female, 1000 mg/kg",2
same,Death rate,"[3]; female, 2000 mg/kg",100%
same,deaths on day 0 after administration,"[3]; female, 2000 mg/kg",2
same,Estimated LD50 value,"[3]; male ICR mice, single intravenous injection",125 mg/kg
same,General symptoms,[3]; [5],"prone positioning, gait disturbance and dyspnea"
same,time of death after injection,[3]; [5],10 to 20 s
same,number of mice with decrease in body weight,"[3]; male, 62.5 mg/kg",1
same,Death rate,"[3]; male, 62.5 mg/kg",0%
same,Death rate,"[3]; male, 125 mg/kg",50%
same,deaths on day 0 after administration,"[3]; male, 125 mg/kg",1
same,Death rate,"[3]; male, 250 mg/kg",100%
same,deaths on day 0 after administration,"[3]; male, 250 mg/kg",2
same,Death rate,"[3]; male, 500 mg/kg",100%
same,deaths on day 0 after administration,"[3]; male, 500 mg/kg",2
same,Death rate,"[3]; male, 1000 mg/kg",100%
same,deaths on day 0 after administration,"[3]; male, 1000 mg/kg",2
same,Death rate,"[3]; male, 2000 mg/kg",100%
same,deaths on day 0 after administration,"[3]; male, 2000 mg/kg",2
same,autopsy finding,[3]; mice that died immediately and mice that survived,No particular autopsy finding was observed
same,General symptoms of live animals,[3]; one day after injection,did not have any particular symptoms
same,Increased life span (ILS),[1]; 60 mg/kg,> 400%
same,Number of survival after 60 days,[1]; 60 mg/kg,3/8
same,Increased life span (ILS),[1]; 80 mg/kg,> 402.8%
same,Number of survival after 60 days,[1]; 80 mg/kg,3/8
same,death in anaphylaxis test,[4]; all dose groups,none died
same,number of animals with severe symptoms,[4]; all dose groups,2
same,number of animals with symptom [++] (severe),[4]; [6],2
same,number of animals with symptom [+] (moderate),[4]; [6],1
same,number of animals with symptom [±] (mild),[4]; [6],1
same,number of animals with symptom [+] (moderate),[4]; [7],1
same,number of animals with symptom [-] (asymptomatic),[4]; [7],3
same,antigenicity compared with physiological saline,[4]; compared with physiological saline solution,antigenicity was even less
"O=C1CC[C@H](NP2(N[C@H]3CCC(=O)[O][Pt-2]4([NH2+]CC[NH2+]4)[O]C3=O)=NP(N[C@H]3CCC(=O)[O][Pt-2]4([NH2+]CC[NH2+]4)[O]C3=O)(N[C@H]3CCC(=O)[O][Pt-2]4([NH2+]CC[NH2+]4)[O]C3=O)=NP(N[C@H]3CCC(=O)[O][Pt-2]4([NH2+]CC[NH2+]4)[O]C3=O)(N[C@H]3CCC(=O)[O][Pt-2]4([NH2+]CC[NH2+]4)[O]C3=O)=N2)C(=O)[O][Pt-2]2([NH2+]CC[NH2+]2)[O]1 [Example 13, [NP(L-Glu·Pt(en))2]3]",Increased life span (ILS),[1]; 30 mg/kg,277%
same,Increased life span (ILS),[1]; 60 mg/kg,Toxic
"O=C1[O][Pt-2]2([NH2+]CC[NH2+]2)[O]C(=O)C1NP1(NC2C(=O)[O][Pt-2]3([NH2+]CC[NH2+]3)[O]C2=O)=NP(NC2C(=O)[O][Pt-2]3([NH2+]CC[NH2+]3)[O]C2=O)(NC2C(=O)[O][Pt-2]3([NH2+]CC[NH2+]3)[O]C2=O)=NP(NC2C(=O)[O][Pt-2]3([NH2+]CC[NH2+]3)[O]C2=O)(NC2C(=O)[O][Pt-2]3([NH2+]CC[NH2+]3)[O]C2=O)=N1 (stereo not shown) [Example 18, [NP(Am·Pt(en))2]3]",Increased life span (ILS),[1]; 30 mg/kg,> 400%
same,Number of survival after 60 days,[1]; 30 mg/kg,3/8
same,Increased life span (ILS),[1]; 60 mg/kg,Toxic
"[NP(OH)(Glu.Pt(dach)]n [KI-30606, reference compound]",death due to anaphylaxis,"[4]; all animals, 30 minutes after injection",died due to anaphylaxis
same,number of animals with symptom [+++] (death),"[4]; antigen 1 mg/kg, induced antigen 5 mg/kg, 5 animals",5
same,number of animals with symptom [+++] (death),[4]; [7],4
